Several values for one entry are separate records, joined by “and”; a condition that tells them apart may be missing. Identical values can stand only once.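 The compound was tested at five concentrations on cells cultured in 96-well plates, with a 48-hour exposure period. Abbreviation: GI50, concentration required for 50% inhibition of growth. TGI denotes the concentration required for complete inhibition of growth.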

Holding throughout (experiment): NCI anticancer screen, dose series, 48 h
The subject of experiment [1] is HOP-92 NSCLC.
Experiment [2] relates to SR leukemia.
Experiment [3] has as its system CAKI-1 renal.
The subject of experiment [4] is CCRF-CEM leukemia.
The test system of experiment [5] is SK-MEL-2 melanoma.
In experiment [6] the test system is MCF7 breast.
The test system of experiment [7] is OVCAR-3 ovarian.
Experiment [8] deals with HOP-62 NSCLC.
Experiment [9] deals with NCI-H23 lung.
For experiment [10], the system named is SK-OV-3 ovarian.

Turning to `Nc1nc(/C=C\c2ccccc2)nc(N2CCN(c3ccccc3)CC2)n1`, the GI50 is 21 µM in [1]; 35.8 µM in [2]; 15.6 µM in experiment [3]; 37.3 µM in experiment [4]; 32.5 µM in experiment [5]; 26.5 µM in experiment [6]. The GI50 in [7] was 28.2 µM; in experiment [8], 23.9 µM. For the same compound, the TGI was 93.3 µM in [1]; over 100 µM in experiment [2]; 43.6 µM in experiment [3]; over 100 µM in experiment [4]; 91.7 µM in experiment [5]; 84.1 µM in experiment [6]. In addition, the TGI is 57.5 µM in experiment [7] and 86.3 µM in [8].
Regarding `O=C1/C(=C/c2ccc(Cl)cc2)CNC/C1=C\c1ccc(Cl)cc1`, the TGI in experiment [1] is over 26.2 µM; in experiment [9] it was 4.17 µM and 4.24 µM; in [2], over 100 µM; in experiment [3], 5.98 µM and 3.82 µM; in experiment [4], 10.3 µM and > 100 µM; in experiment [5] it was 28.4 µM and 43.2 µM. Besides, the TGI in experiment [10] is over 100 µM; in [6], 21.2 µM; in experiment [7], 4.87 µM and 4.9 µM; in experiment [8] it was 12.5 µM and 7.03 µM. The GI50 in experiment [4] was 0.596 µM and 1.32 µM; in experiment [5], 4.92 µM and 14.5 µM.
Turning to `COC(=O)c1cc2c3ccccc3n3c2c(n1)-c1[nH]c2ccccc2c(=O)c1C3`, the GI50 in experiment [1] is 11.4 µM; in [9], 38.9 µM; in experiment [2] it was 17.3 µM; in experiment [3], over 100 µM; in experiment [4], 2.19 µM; in [5] it was 36.4 µM. For the same compound, the GI50 in experiment [10] is 19.6 µM; in [6], 15.6 µM; in [7], over 100 µM. The TGI in [1] was 29.3 µM; in experiment [9], over 100 µM; in [2] it was 96.9 µM; in experiment [3] it was over 100 µM; in experiment [4], over 100 µM; in experiment [5], over 100 µM. The TGI in experiment [10], in experiment [6] and in experiment [7] was over 100 µM each time.
On to `O=[N+]([O-])c1cc([N+](=O)[O-])c(Nn2c3ccccc3c3ccccc32)c([N+](=O)[O-])c1`, for which the TGI is 2.81 µM in experiment [1]; 4.55 µM and 3.96 µM in experiment [9]; over 100 µM in [2]; 0.703 µM in [3]; over 100 µM in experiment [4]; 0.702 µM in experiment [5]. Besides, the TGI in [6] was 5.86 µM; in [7] it was over 33.5 µM; in experiment [8] it was 6.11 µM and 2.07 µM. For the same compound, the GI50 in experiment [9] was 0.313 µM; in experiment [2], 0.232 µM; in experiment [3], 0.238 µM; in [4], 0.355 µM; in [5], 0.267 µM; in experiment [6] it was 0.292 µM. Moreover, the values for the GI50 in [7] and in [8] were 0.352 µM and 0.344 µM, respectively.
`CCc1nc2ccc(N=Nc3c(O)ccc4ccccc34)cc2[nH]1`: the TGI in experiment [1] is 42.7 µM; in experiment [9], 49.2 µM; in experiment [2], 24.7 µM; in experiment [3] it was 40.2 µM; in experiment [4] it was 26.4 µM; in [5], 37.9 µM. The TGI in experiment [10] is over 62 µM; in experiment [6], 42.2 µM; in [7], 37.2 µM; in experiment [8] it was 43.6 µM.
Consider `C/C=C1/CC(C)C(C)(O)C(=O)OCC2C(O)CN3CCC(OC1=O)C23` (centres undefined), for which the TGI in experiment [1], in experiment [9], in [2], in experiment [3], in experiment [4] and in experiment [5] was over 100 µM throughout. Moreover, the TGI in [10], in experiment [6] and in experiment [8] was over 100 µM each time.
`N#Cc1cnc(Nc2cc(NC[C@H]3CNCCO3)c(C(F)(F)F)cn2)cn1`: the GI50 was 8.95 µM in experiment [1]; 0.791 µM in [9]; 0.64 µM in experiment [2]; 0.8 µM in experiment [4]; 12.6 µM in experiment [5]; 3.62 µM in experiment [10]. In addition, the values for the GI50 in experiment [6], in experiment [7] and in experiment [8] were 0.639 µM, 13.3 µM and 6.54 µM, respectively. Besides, the TGI in experiment [1] was 26.6 µM; in experiment [9] it was 26.8 µM; in experiment [2] it was 24 µM; in [4], over 100 µM; in experiment [5] it was 34.7 µM; in [10], 38.9 µM. In addition, the TGI in experiment [6] is 23 µM; in experiment [7], 48.3 µM; in experiment [8], 36.8 µM.
Consider `COc1ccc(/C=C2/SC(Nc3nc(-c4nc(NC5=NC(=O)/C(=C\c6ccc(OC)cc6)S5)sc4C)c(C)s3)=NC2=O)cc1`, for which the GI50 in experiment [1] is 6.15 µM; in [9], 0.944 µM; in experiment [2] it was 0.14 µM; in experiment [3], 0.368 µM; in experiment [4], 1.68 µM; in [5], 15.2 µM. Moreover, the GI50 was 1.59 µM in [6], 0.188 µM in experiment [7] and 0.485 µM in experiment [8]. For the same compound, the TGI in [1] was 19.1 µM; in experiment [9], 4.97 µM; in experiment [2], over 50 µM; in experiment [3], 3.16 µM; in experiment [4] it was over 50 µM; in experiment [5] it was over 50 µM. The TGI in [6] was over 30.7 µM; in experiment [7], 3.25 µM; in experiment [8], 4.92 µM.
Consider `O=C(c1ccc(Cl)cc1)C(O)c1ccc(Cl)cc1` (centres undefined), for which the TGI in [1], in [9], in [2], in experiment [3], in [4] and in experiment [5] was over 100 µM throughout. The TGI in [6], in [7] and in experiment [8] was over 100 µM each time.
As to `COc1ccc([C@@]23Oc4cc(OC)cc(OC)c4[C@]2(O)[C@H](O)[C@H](C(N)=O)[C@H]3c2ccccc2)cc1`, the GI50 is under 0.0153 µM in experiment [1], 0.01 µM in experiment [2], under 0.0147 µM in experiment [5] and under 0.0129 µM in [7]. Moreover, the TGI is 0.317 µM and 0.0541 µM in experiment [1]; 0.0769 µM and 0.0157 µM in experiment [9]; 0.0838 µM in experiment [3]; over 100 µM in experiment [4]; 0.0556 µM and 0.0738 µM in experiment [5]; 0.112 µM in experiment [6]. The TGI in [7] is 0.101 µM and 0.284 µM; in [8], 0.216 µM and 0.0916 µM.
